Measurements: US9301965B2, “Method of treating ovarian cancer using a PKC inhibitor” (University of South Florida, priority 2014, dated 2016)
Values joined by “and” are separate entries in the source; they are usually repeats but may differ in a detail not shown here. Equal values may be shown once.

Experiments:
HEY ovarian cancer cells [1] = experiment: HEY cell proliferation, Trypan blue exclusion assay; format: cell-based, human
Description: HEY human ovarian carcinoma cells were obtained from Dr. Meera Nanjundan's laboratory at the University of South Florida. The cells were grown as a monolayer in a T25 tissue culture flask with 5 mL of growth medium and maintained in a 37° C. incubator with 5% CO2. The RPMI1640 growth medium was obtained from and American Type Culture Collection (ATCC) and Life Technologies (Carlsbad, Calif.). The medium was supplemented with 10% fetal bovine serum (FBS) and a mix of the antibiotics Penicillin (10,000 IU) and Streptomycin (10,000 μg/ml) in a 100× concentration which was purchased from Corning.
HEY cells were cultured in a T25 cell culture flask. 13,000 cells were seeded into each well in a 6-well culture plate. ACPD was weighed and dissolved in water to create a 100 mM stock solution. From this solution, serial dilutions were done to create a 1 mM stock solution which was then used for treatment. In order to assess the effect of ACPD on cell viability, three wells were treated with 2 μM ACPD while the other three wells were left untreated as controls. The treatment period was 72 hours with the growth medium being changed every 24 hours. The cells were also washed with DPBS every time the growth medium was changed. Cell viability was determined at 24, 48 and 72 hours using a Trypan blue exclusion assay where 30 μL of the cell suspension was added to 30 μL of Trypan blue. The number of unstained cells was counted using a hematocytometer. The same procedures were used for ICA-1.
The experiments were performed as per the protocol described by Patel et al. (2008), herein incorporated by reference. Briefly, cells were cultured in T75 flasks in monolayers. For treatment, 40,000 cells were seeded into T75 flasks and treated for 72 hours with ICA-1 and ACPD. The proliferation was measured each day by a Trypan Blue exclusion assay which involved staining the cells with Trypan Blue and counting them under a microscope using a hemocytometer.

PKC-ζ = target: T1, PKC-ζ (Homo sapiens, UniProt Q05513); details: cited from earlier work
T1 sequence (Q05513 1-592): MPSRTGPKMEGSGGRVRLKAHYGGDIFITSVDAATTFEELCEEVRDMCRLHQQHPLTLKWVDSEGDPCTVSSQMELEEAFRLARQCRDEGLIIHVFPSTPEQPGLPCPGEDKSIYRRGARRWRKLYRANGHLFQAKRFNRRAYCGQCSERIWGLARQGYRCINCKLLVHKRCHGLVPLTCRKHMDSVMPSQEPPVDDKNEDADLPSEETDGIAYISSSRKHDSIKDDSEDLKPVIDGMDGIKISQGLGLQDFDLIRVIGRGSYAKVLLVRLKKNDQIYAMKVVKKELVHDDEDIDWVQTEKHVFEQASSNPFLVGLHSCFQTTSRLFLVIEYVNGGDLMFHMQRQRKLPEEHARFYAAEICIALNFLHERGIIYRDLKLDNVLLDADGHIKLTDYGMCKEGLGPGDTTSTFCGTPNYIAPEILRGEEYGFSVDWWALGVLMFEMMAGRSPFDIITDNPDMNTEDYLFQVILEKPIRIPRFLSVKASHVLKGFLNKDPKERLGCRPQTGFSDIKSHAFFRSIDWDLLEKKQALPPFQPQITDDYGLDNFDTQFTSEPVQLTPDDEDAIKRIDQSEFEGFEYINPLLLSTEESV

PKC-δ = PKC-δ (Homo sapiens, UniProt Q05655); details: cited from earlier work
PKC-δ, sequence (Q05655 whole entry): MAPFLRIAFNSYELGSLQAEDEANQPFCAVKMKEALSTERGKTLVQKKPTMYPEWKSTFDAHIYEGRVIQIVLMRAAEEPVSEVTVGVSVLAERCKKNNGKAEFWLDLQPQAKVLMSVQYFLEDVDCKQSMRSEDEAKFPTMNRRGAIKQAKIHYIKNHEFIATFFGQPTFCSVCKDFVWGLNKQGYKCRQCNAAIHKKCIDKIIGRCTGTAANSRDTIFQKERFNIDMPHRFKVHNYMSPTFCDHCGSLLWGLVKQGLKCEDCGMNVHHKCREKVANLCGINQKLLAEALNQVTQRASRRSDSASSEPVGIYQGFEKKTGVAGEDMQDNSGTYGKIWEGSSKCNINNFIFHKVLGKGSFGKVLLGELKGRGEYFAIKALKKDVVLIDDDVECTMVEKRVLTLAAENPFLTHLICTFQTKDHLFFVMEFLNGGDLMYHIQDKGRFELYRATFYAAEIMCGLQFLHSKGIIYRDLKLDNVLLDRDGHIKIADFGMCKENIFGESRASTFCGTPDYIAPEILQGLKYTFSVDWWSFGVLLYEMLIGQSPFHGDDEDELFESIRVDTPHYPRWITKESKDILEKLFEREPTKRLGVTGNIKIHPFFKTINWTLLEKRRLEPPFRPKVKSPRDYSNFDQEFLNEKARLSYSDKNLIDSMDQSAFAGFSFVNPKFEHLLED

PKC-ε = target: T2, PKC-ε (Homo sapiens, UniProt Q02156); details: cited from earlier work
T2 sequence (Q02156 1-737): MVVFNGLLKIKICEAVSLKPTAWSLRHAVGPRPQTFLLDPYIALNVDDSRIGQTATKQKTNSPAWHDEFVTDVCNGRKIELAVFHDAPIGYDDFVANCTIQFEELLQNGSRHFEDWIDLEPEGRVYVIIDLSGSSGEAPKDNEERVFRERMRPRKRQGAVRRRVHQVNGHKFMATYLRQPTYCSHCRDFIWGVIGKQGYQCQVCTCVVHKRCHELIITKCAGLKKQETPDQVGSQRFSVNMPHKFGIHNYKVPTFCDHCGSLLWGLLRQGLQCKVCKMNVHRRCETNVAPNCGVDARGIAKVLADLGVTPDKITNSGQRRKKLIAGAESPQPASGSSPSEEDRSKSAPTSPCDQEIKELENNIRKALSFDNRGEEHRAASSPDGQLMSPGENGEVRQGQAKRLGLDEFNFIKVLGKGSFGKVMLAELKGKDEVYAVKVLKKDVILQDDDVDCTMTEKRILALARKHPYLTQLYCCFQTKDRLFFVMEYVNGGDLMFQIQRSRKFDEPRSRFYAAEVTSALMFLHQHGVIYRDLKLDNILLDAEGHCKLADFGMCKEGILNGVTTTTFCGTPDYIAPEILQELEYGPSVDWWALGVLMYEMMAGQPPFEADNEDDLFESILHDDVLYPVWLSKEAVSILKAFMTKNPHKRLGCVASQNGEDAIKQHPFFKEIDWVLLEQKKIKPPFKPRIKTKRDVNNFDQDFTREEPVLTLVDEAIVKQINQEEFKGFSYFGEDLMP

HEY ovarian cancer cells [2] = experiment: Total RNA concentration of HEY cells (Rneasy Mini Kit, NanoDrop1000); format: cell-based, human; details: for reduction of total RNA: 2 μM
Text: RNA was isolated from the treated and untreated cells using the Rneasy Mini Kit and protocol. The total RNA concentration was estimated using the NanoDrop1000 spectrophotometer.

PKC-β = PKC-β (Homo sapiens, UniProt P05771); details: cited from earlier work
PKC-β, sequence (P05771 whole entry, species assumed): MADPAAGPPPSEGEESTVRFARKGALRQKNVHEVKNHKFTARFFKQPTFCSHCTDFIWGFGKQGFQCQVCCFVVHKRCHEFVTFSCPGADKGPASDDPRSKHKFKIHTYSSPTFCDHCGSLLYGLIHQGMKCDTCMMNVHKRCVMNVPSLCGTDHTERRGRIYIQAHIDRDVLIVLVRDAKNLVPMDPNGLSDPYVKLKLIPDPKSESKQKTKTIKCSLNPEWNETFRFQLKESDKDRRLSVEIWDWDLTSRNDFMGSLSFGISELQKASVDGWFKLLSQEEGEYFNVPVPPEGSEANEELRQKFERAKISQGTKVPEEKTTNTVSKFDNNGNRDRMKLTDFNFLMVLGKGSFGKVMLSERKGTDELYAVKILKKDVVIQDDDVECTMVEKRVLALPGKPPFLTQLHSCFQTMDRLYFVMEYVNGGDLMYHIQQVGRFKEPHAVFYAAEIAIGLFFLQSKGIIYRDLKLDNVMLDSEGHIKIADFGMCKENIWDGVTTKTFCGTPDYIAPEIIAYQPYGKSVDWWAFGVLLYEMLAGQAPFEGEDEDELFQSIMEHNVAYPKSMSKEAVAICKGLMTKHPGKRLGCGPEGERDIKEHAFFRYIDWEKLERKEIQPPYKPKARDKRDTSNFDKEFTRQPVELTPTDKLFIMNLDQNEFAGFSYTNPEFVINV

PKC-ι [3] = target: T3, PKC-ι (Homo sapiens, UniProt P41743); details: cited from earlier work
T3 sequence (P41743 1-596): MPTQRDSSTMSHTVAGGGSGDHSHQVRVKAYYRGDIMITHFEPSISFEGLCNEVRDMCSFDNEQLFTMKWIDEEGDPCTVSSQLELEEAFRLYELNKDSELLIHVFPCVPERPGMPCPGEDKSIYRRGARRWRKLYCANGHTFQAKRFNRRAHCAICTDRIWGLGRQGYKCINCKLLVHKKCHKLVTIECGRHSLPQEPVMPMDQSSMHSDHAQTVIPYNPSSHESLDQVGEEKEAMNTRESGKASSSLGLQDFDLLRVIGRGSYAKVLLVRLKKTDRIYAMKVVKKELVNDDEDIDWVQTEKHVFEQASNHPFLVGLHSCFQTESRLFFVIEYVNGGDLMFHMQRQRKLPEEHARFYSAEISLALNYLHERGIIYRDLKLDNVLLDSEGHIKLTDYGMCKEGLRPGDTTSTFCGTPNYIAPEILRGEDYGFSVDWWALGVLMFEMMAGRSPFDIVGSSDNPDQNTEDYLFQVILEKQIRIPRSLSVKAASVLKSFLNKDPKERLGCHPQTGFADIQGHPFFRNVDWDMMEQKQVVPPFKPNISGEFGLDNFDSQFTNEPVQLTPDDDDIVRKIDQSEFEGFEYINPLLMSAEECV

PKC-α = PKC-α (Homo sapiens, UniProt P17252); details: cited from earlier work
PKC-ι [4] = target: T3, PKC-ι; details: cited from earlier work; remark: listed apart in the source

Row | Compound | reduction of cell proliferation (HEY ovarian cancer cells [1]; 800 nM, 72 hour treatment) | reduction of cell proliferation (HEY ovarian cancer cells [1]; 1.8 μM, 72 hour treatment) | reduction of cell proliferation (HEY ovarian cancer cells [1]; 2 μM, 24 hours, compared to controls) | reduction of cell proliferation (HEY ovarian cancer cells [1]; 2 μM, 48 hours) | effectiveness in inhibiting cell proliferation relative to ICA-1 (HEY ovarian cancer cells [1]; HEY ovarian cancer cells) | inhibition of PKC-ζ (PKC-ζ) | inhibition of PKC-δ (PKC-δ) | inhibition of PKC-ε (PKC-ε) | reduction of total RNA concentration (HEY ovarian cancer cells [2]; 1.8 μM, 72 hour treatment) | reduction of total RNA (HEY ovarian cancer cells [2]; 24 hours) | reduction of total RNA (HEY ovarian cancer cells [2]; 48 hours) | reduction of total RNA (HEY ovarian cancer cells [2]; 72 hours) | inhibition of PKC-β (PKC-β) | inhibition of PKC-ι (PKC-ι [3]) | inhibition of PKC-α (PKC-α) | binding to PKC-ι (PKC-ι [4])
1 | CC(=O)C1=C(O)CCC1=O [ACPD, 2-acetyl-1,3-cyclopentanedione] | 16% | 28% | 82% and 81.75% | 60.5% and 60% | over five times more effective than ICA-1 | inhibits both PKC-ζ and PKC-ι | not PKC-α, PKC-β, PKC-δ, or PKC-ε | not PKC-α, PKC-β, PKC-δ, or PKC-ε | 38% | 97% and 97.4% | 52.4% and 52% | 34.3% and 34% | not PKC-α, PKC-β, PKC-δ, or PKC-ε | inhibits both PKC-ζ and PKC-ι | not PKC-α, PKC-β, PKC-δ, or PKC-ε | 
2 | OC[C@H]1O[C@H]([S][Au])[C@H](O)[C@@H](O)[C@@H]1O [aurothioglucose] |  |  |  |  |  |  |  |  |  |  |  |  |  |  |  | low micromolar range
3 | O=C([O-])CC([S][Au])C(=O)[O-] (centres unmarked) [Sodium aurothiomalate] |  |  |  |  |  |  |  |  |  |  |  |  |  |  |  | low micromolar range
